What all share (type): biochemical
In assay [1] the target is VIM-2 (Veronese metallo-β-lactamase-2) (Escherichia coli, UniProt Q5U7L7). Description: Enzyme inhibition assay, VIM-2. Here is the method: (§1) The biological activity of the compounds of the present invention was tested using standard assay protocols.^7 The following representative enzymes NDM-1 (New Delhi metallo-β-lactamase-1), IMP-1 (Imipenemase-1) and VIM-2 (Veronese metallo-β-lactamase-2) were selected from different clinically relevant B1 metallo-β-lactamases.

For another assay, the target named is IMP-1 (Imipenemase-1) (Serratia marcescens, UniProt P52699). The experiment in a line: Enzyme inhibition assay, IMP-1. Here is the method:
as §1

The target in assay [2] is NDM-1 (New Delhi metallo-β-lactamase-1) (Klebsiella pneumoniae, UniProt C7C422). The experiment in a line: Enzyme inhibition assay, NDM-1. Here is the method:
as §1

[3] abbreviates: read-out: pIC50 VIM-2 (converted).
Where [4] appears, read: read-out: pIC50 IMP-1 (converted).
[5] abbreviates: read-out: pIC50 NDM-1 (converted).

Read-outs that look alike come from different tables or passages of the source.

Sequence of NDM-1 (New Delhi metallo-β-lactamase-1) (C7C422 29-270, looked up, species assumed): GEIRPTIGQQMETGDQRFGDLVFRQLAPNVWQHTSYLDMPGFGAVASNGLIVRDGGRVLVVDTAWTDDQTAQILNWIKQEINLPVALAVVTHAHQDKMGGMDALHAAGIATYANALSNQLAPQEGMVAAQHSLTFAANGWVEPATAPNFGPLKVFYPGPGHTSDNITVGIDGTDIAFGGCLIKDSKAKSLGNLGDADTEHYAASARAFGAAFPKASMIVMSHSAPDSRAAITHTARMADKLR
Sequence of IMP-1 (Imipenemase-1) (P52699 19-246, looked up, species assumed): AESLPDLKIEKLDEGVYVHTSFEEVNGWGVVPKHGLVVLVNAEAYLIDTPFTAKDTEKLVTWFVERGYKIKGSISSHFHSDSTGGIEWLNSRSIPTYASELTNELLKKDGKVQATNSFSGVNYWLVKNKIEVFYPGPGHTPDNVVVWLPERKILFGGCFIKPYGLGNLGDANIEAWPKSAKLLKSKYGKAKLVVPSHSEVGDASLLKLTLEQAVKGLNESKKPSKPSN

With `Cc1cccc2c(-c3ccc(C(N)=O)cc3)c(C(=O)O)[nH]c12` [Example 5, 3-(4-carbamoylphenyl)-7-methyl-1H-indole-2-carboxylic acid], the IC50 is 100 nM in assay [1] (setting [3]), 7940 nM on IMP-1 (Imipenemase-1) (setting [4]) and 31.6 nM in assay [2] (setting [5]).

Turning to `COCCc1cccc2c(-c3ccc(F)cc3)c(C(=O)O)[nH]c12` [Example 61, 3-(4-fluorophenyl)-7-(2-methoxyethyl)-1H-indole-2-carboxylic acid], the IC50 in assay [1] (setting [3]) was 316 nM; on IMP-1 (Imipenemase-1) (setting [4]), 1260 nM; in assay [2] (setting [5]) it was 31.6 nM.

Turning to `Cc1c(Oc2ccccc2)ccc2c(-c3ccc(Cl)cc3)c(C(=O)O)[nH]c12` [Example 85, 3-(4-chlorophenyl)-7-methyl-6-phenoxy-1H-indole-2-carboxylic acid], the IC50 is 158 nM in assay [1] (setting [3]), 1000 nM on IMP-1 (Imipenemase-1) (setting [4]) and 100 nM in assay [2] (setting [5]).

As to `CC(=O)Nc1ccc(-c2c(C(=O)O)[nH]c3c(C)cccc23)cc1` [Example 30, 3-(4-acetamidophenyl)-7-methyl-1H-indole-2-carboxylic acid], the IC50 is 158 nM in assay [1] (setting [3]), 2510 nM at IMP-1 (Imipenemase-1) (setting [4]) and 20 nM in assay [2] (setting [5]).

For `CC(C)c1cccc2c(-c3ccc(S(N)(=O)=O)cc3)c(C(=O)O)[nH]c12` [Example 65, 7-isopropyl-3-(4-sulfamoylphenyl)-1H-indole-2-carboxylic acid], the IC50 in assay [1] (setting [3]) was 12.6 nM; at IMP-1 (Imipenemase-1) (setting [4]) it was 31.6 nM; in assay [2] (setting [5]), 1.58 nM.

Regarding `Cc1ccc2c(-c3ccc(F)cc3)c(C(=O)O)[nH]c2c1` [Example 119, 3-(4-fluorophenyl)-6-methyl-1H-indole-2-carboxylic acid], the results for the IC50 (in assay [1] (setting [3]); on IMP-1 (Imipenemase-1) (setting [4]); in assay [2] (setting [5])) were 15800 nM, 79400 nM and 2000 nM, respectively.

On to `Cc1ccc2c(-c3ccc(C(N)=O)cc3)c(C(=O)O)[nH]c2c1` [Example 48, 3-(4-carbamoylphenyl)-6-methyl-1H-indole-2-carboxylic acid], for which the figures for the IC50 (in assay [1] (setting [3]); on IMP-1 (Imipenemase-1) (setting [4]); in assay [2] (setting [5])) were 3980 nM, above 100000 nM and 631 nM, respectively.

Turning to `Cc1cccc2c(C3CCCCC3)c(C(=O)O)[nH]c12` [Example 103], the IC50 in assay [1] (setting [3]) was 3160 nM; on IMP-1 (Imipenemase-1) (setting [4]) it was 79400 nM; in assay [2] (setting [5]), 79.4 nM.

With `O=C(O)c1[nH]c2c(CCOc3ccccc3)cccc2c1-c1ccc(Cl)cc1` [Example 84, 3-(4-chlorophenyl)-7-(2-phenoxyethyl)-1H-indole-2-carboxylic acid], the IC50 in assay [1] (setting [3]) is 20 nM; at IMP-1 (Imipenemase-1) (setting [4]), 631 nM; in assay [2] (setting [5]), 37.2 nM.

In the case of `Cc1noc(C)c1-c1c(C(=O)O)[nH]c2c(C)cccc12` [Example 117, 3-(3,5-dimethylisoxazol-4-yl)-7-methyl-1H-indole-2-carboxylic acid], the IC50 in assay [1] (setting [3]) is 200 nM; at IMP-1 (Imipenemase-1) (setting [4]), above 100000 nM; in assay [2] (setting [5]), 1260 nM.

In the case of `Cc1cccc2c(-c3cccc(N(C)C)c3)c(C(=O)O)[nH]c12` [Example 17, 3-(3-(dimethylamino)phenyl)-7-methyl-1H-indole-2-carboxylic acid], the IC50 in assay [1] (setting [3]) was 501 nM; at IMP-1 (Imipenemase-1) (setting [4]) it was above 100000 nM; in assay [2] (setting [5]) it was 200 nM.

On to `COc1cccc(-c2c(C(=O)O)[nH]c3c(C)cccc23)c1OC` [Example 116, 3-(2,3-dimethoxyphenyl)-7-methyl-1H-indole-2-carboxylic acid], for which the IC50 was 39.8 nM in assay [1] (setting [3]), above 100000 nM at IMP-1 (Imipenemase-1) (setting [4]) and 1260 nM in assay [2] (setting [5]).

As for `O=C(O)c1[nH]c2c(CCO)cccc2c1-c1ccc(F)cc1` [Example 108, 3-(4-fluorophenyl)-7-(2-hydroxyethyl)-1H-indole-2-carboxylic acid], the IC50 was 794 nM in assay [1] (setting [3]), 3160 nM at IMP-1 (Imipenemase-1) (setting [4]) and 50.1 nM in assay [2] (setting [5]).

Regarding `Cc1cccc2c(C3=CCNCC3)c(C(=O)O)[nH]c12` [Example 36, 7-methyl-3-(1,2,3,6-tetrahydropyridin-4-yl)-1H-indole-2-carboxylic acid], the IC50 in assay [1] was 39800 nM; at IMP-1 (Imipenemase-1) it was above 100000 nM; in assay [2], 398 nM.
